Tests used:
BALB/c female mice = test: IgE-dependent passive cutaneous anaphylaxis reaction, footpad swelling; assay type: in vivo; conditions: oral 100 mg/kg
Description: The study was approved by the Institutional Ethics Committee of Tel Aviv University. 8-10 weeks old BALB/c female mice were primed to express an IgE-dependent passive cutaneous anaphylaxis (PCA) reaction. Mice were lightly anaesthetized with ether and their left footpads were injected subcutaneously with 20 ul (20 ng) of IgE anti DNP. Their right footpads were injected with 20 ul of diluents. The next day the mice received an intraperitoneal injection of 100 ug of DNP30-40-HAS in saline. Footpad swelling was measured with an engineer's micrometer (Ozaki Mfg. Co., Itabashi, Tokyo). Footpad swelling was expressed as the difference in thickness before and after the challenge, measured at several time points after the challenge. FTS was orally administrated before the antigen challenge at 100 mg/kg as previously described.

LAD2 cells [1] = test: TNF-α release from stimulated mast cells (ELISA); assay type: cell-based, human; conditions: different concentrations of FTS, 3 hours after stimulation, dose dependent, p<0.05
Description: (§1) The LAD2 MC, expressing functional FCεRI receptors, were established from bone marrow aspirates of a patient with MC leukemia and maintained as previously described. Transfection of LAD2 cells was performed with DMRIE-C (Invitrogen, Carlsbad, Calif.), and cells were studied 24 hours later. For IgE-mediated activation, cells were sensitized overnight with 100 ng/ml of human myeloma IgE-biotin (Calbiochem; Merck Darmstadt, Germany) and then stimulated with 100 ng/ml of streptavidin (Jackson Immuno-Research Laboratories, West Grove, Pa.). Degranulation was quantified 20 minutes after stimulation by assaying the release of ε-hexosaminidase, a preformed mediator present in the secretory granules of MC. Release of ε-hexosaminidase was measured spectrophotometrically by assaying the cleavage of its substrate p-nitrophenyl-N-acetyl-ε-D-glucosaminide. Degranulation was expressed as a percentage of total ε-hexosaminidase activity in the cells, obtained by lysis of the cells with 0.5% triton X-100. Supernatants obtained from MC stimulated for 3 to 6 hours were examined for the released PGD2 and TNF-α by a commercial ELISA kits, according to the manufacturer's instructions (Prostaglandin D2-MOX EIA Kit, Cayman Chemical Company, Ann Arbor, Mich., and TNF-α HS Elisa kit, R&D® Systems Inc., Minneapolis, Minn.).

N-Ras = target: T1, N-Ras (Homo sapiens, UniProt P01111); test: Ras activation imaging: GFP-Raf-1-RBD probe translocation in LAD2 cells after FCεRI cross-linking; assay type: cell-based; conditions: LAD2 cells expressing RFP-N-Ras, pretreated with 25 μM FTS
T1 construct: expressed in transfected cells; host or cells: LAD2 human mast cell line
Description: The LAD2 MC, expressing functional FCεRI receptors, were established from bone marrow aspirates of a patient with MC leukemia and maintained as previously described. Transfection of LAD2 cells was performed with DMRIE-C (Invitrogen, Carlsbad, Calif.), and cells were studied 24 hours later.
as §1, with “For” for “The LAD2 MC, expressing functional FCεRI receptors, were established from bone marrow aspirates of a patient with MC leukemia and maintained as previously described. Transfection of LAD2 cells was performed with DMRIE-C (Invitrogen, Carlsbad, Calif.), and cells were studied 24 hours later. For”
Live cells were plated in 35-mm dishes containing a no. […]

LAD2 cells [2] = test: PGD2 release from stimulated mast cells (ELISA); assay type: cell-based, human; conditions: 6 hours after stimulation
Description: as §1

Ras = test: Raf-1-RBD pull-down assay of GTP loaded Ras in stimulated LAD2 cells; assay type: cell-based, human; conditions: FCεRI cross-linking, pretreated with 25 μM FTS
Description: as §1, with “For” for “The LAD2 MC, expressing functional FCεRI receptors, were established from bone marrow aspirates of a patient with MC leukemia and maintained as previously described. Transfection of LAD2 cells was performed with DMRIE-C (Invitrogen, Carlsbad, Calif.), and cells were studied 24 hours later. For”, “Minn.). Methods of detecting activated Ras by pull-down assay and by SDS-PAGE immunoblotting were performed as previously described.” for “Minn.).”

LAD2 cells [3] = test: Mast cell degranulation (β-hexosaminidase secretion) after FCεRI cross-linking; assay type: cell-based, human; conditions: 20 minutes after stimulation
Description: as §1

T1 sequence (P01111 whole entry, species assumed): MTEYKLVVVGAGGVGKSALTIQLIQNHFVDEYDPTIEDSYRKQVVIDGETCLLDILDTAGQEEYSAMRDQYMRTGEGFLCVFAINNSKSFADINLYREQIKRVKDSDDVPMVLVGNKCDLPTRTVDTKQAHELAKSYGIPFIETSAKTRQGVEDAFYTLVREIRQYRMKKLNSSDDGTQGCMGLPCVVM

CC(C)=CCCC(C)=CCCC(C)=CCSc1ccccc1C(=O)O [FTS, S-farnesylthiosalicylic acid]
tissue (footpad) swelling (BALB/c female mice; three hours after antigen challenge): inhibited tissue swelling
attenuation of tissue (footpad) swelling (BALB/c female mice; three to six hours after antigen challenge): ~40%
TNF-α release (LAD2 cells [1]): appreciably inhibited
translocation of the probe for activated Ras (GFP-Raf-1-RBD) to the plasma membrane (N-Ras): completely blocked
release of PGD2 (LAD2 cells [2]; 25 μM FTS): not
release of PGD2 (LAD2 cells [2]; 50 μM FTS): inhibited
levels of GTP loaded Ras (Ras): significantly attenuated
relative reduction in the amount of activated Ras (Ras; n=4): approximately 35%
immunological degranulation (β-hexosaminidase secretion) (LAD2 cells [3]; 25 μM FTS): did not significantly modify
immunological degranulation (β-hexosaminidase secretion) (LAD2 cells [3]; 50 μM FTS): did not significantly modify
